Results taken from US10294202B2, “Pyrrolidinones as herbicides” (FMC Corporation, priority 2013, dated 2019).

Experiments:
morningglory = test: Test C pre-/postemergence herbicide test; assay type: in vivo, Ipomoea coccinea
How it was run: (§1)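 Compound solutions contained surfactant in a non-phytotoxic solvent. These were sprayed onto pots of loam/sand sown with seeds, and onto young plants (2 to 18 cm, 1- to 4-leaf) in sphagnum peat–vermiculite mix. Visual injury scores (0 none, 100 complete control) were recorded after 13 to 15 days.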

johnsongrass = test: Test C pre-/postemergence herbicide test; assay type: in vivo, Sorghum halepense
How it was run: as §1

sedge, umbrella = test: Test B flooded paddy test; assay type: in vivo, Cyperus difformis; conditions: 500 g ai/ha, Flood; scale of 0 to 100 where 0 is no effect and 100 is complete control
How it was run: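 Plants grown to 2-leaf stage; pots flooded 3 cm above soil and compound applied directly into paddy water, depth held throughout. Visual rating against untreated controls after 13 to 15 days in greenhouse, 0 (no effect) to 100 (complete control).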

waterhemp = test: Test C pre-/postemergence herbicide test; assay type: in vivo, Amaranthus rudis
How it was run: as §1

pigweed = test: Test C pre-/postemergence herbicide test; assay type: in vivo, Amaranthus retroflexus
How it was run: as §1

wheat (winter wheat) = test: Test C pre-/postemergence herbicide test; assay type: in vivo, Triticum aestivum
How it was run: as §1

wheat = test: Test A pre-/postemergence herbicide test; assay type: in vivo, Triticum aestivum; conditions: Postemergence
How it was run: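 Formulated compound (non-phytotoxic solvent, surfactant) sprayed pre- onto soil of seeded loam/sand pots or post- onto seedlings at 1–2 leaves; ~10 d greenhouse; 0–100 visual control rating versus untreated.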

galium = test: Test C pre-/postemergence herbicide test; assay type: in vivo, Galium aparine; conditions: Preemergence; for Plant response rating, Galium: 125 g ai/ha, scale 0 to 100; for Plant response rating (scale of 0 to 100), Galium: 250 g ai/ha
How it was run: as §1

blackgrass = test: Test C pre-/postemergence herbicide test; assay type: in vivo, Alopecurus myosuroides
How it was run: as §1

lambsquarters = test: Test C pre-/postemergence herbicide test; assay type: in vivo, Chenopodium album
How it was run: as §1

crabgrass, large = test: Test C pre-/postemergence herbicide test; assay type: in vivo, Digitaria sanguinalis
How it was run: as §1

[1] = Postemergence, 31 g ai/ha, scale 0 to 100 (0 no effect, 100 complete control)
[2] = Postemergence, 62 g ai/ha, scale 0 (no effect) to 100 (complete control)
[3] = Postemergence, 125 g ai/ha, scale 0 to 100 (0 no effect, 100 complete control)
[4] = Postemergence, 250 g ai/ha, scale 0 to 100 (0 no effect, 100 complete control)
[5] = Preemergence, 31 g ai/ha, scale 0 to 100, 0 is no effect and 100 is complete control
[6] = Preemergence, 62 g ai/ha, scale 0 to 100 (0 no effect, 100 complete control)
[7] = Preemergence, 125 g ai/ha, scale 0 to 100
[8] = 125 g ai/ha, visual rating on 0 to 100 scale (0 no effect, 100 complete control), approx. 10 days
[9] = 500 g ai/ha, 0 to 100 scale (0 no effect, 100 complete control)
[10] = 31 g ai/ha, scale 0 to 100, 0 is no effect and 100 is complete control
[11] = 62 g ai/ha, scale 0 to 100 (0 no effect, 100 complete control)

O=C1NCC(c2cccc(OC(F)F)c2)C1C(=O)Nc1cccc(F)c1F (stereo not drawn) [Compound 324]
60: Galium plant response rating (galium; [11]) | Plant response rating, Crabgrass, Large (crabgrass, large; [2])
15: Plant response rating, Morningglory (morningglory; [4])
65: Johnsongrass plant response rating (johnsongrass; [6]) | Plant response rating, Pigweed (pigweed; [3]) | Plant response rating, Wheat (wheat (winter wheat); [7]) | Plant response rating, Lambsquarters (lambsquarters; [4])
0: Morningglory plant response rating (morningglory; [5]) | Morningglory plant response rating (morningglory; [6]) | Plant response rating, Johnsongrass (johnsongrass; [1]) | Plant response rating, Johnsongrass (johnsongrass; [2]) | Plant response rating, Johnsongrass (johnsongrass; [3]) | Plant response rating, Sedge, Umbrella (sedge, umbrella) | Plant response rating, Waterhemp (waterhemp; [1]) | Plant response rating, Pigweed (pigweed; [1]) | Plant response rating, Wheat (wheat (winter wheat); [1]) | Plant response rating, Wheat (wheat (winter wheat); [2]) | Plant response rating, Wheat (wheat (winter wheat); [3]) | Plant response rating, Wheat (wheat (winter wheat); [4]) | Galium plant response rating (galium; [10]) | Plant response rating, Blackgrass (blackgrass; [1]) | Plant response rating, Blackgrass (blackgrass; [2]) | Plant response rating, Blackgrass (blackgrass; [3]) | Plant response rating, Blackgrass (blackgrass; [4]) | Plant response rating, Lambsquarters (lambsquarters; [1])
70: Waterhemp plant response rating (waterhemp; [6]) | Plant response rating, Blackgrass (blackgrass; [7]) | Plant response rating, Lambsquarters (lambsquarters; [3]) | Lambsquarters plant response rating (lambsquarters; [6]) | Plant response rating, Crabgrass, Large (crabgrass, large; [3])
40: Johnsongrass plant response rating (johnsongrass; [5]) | Plant response rating, Waterhemp (waterhemp; [4])
50: Lambsquarters plant response rating (lambsquarters; [5])
25: Wheat plant response rating (wheat (winter wheat); [6]) | Plant response rating, Crabgrass, Large (crabgrass, large; [1])
95: Plant response rating (scale of 0 to 100), Blackgrass (blackgrass; Preemergence, 250 g ai/ha) | Crabgrass, Large plant response rating (crabgrass, large; [5]) | Crabgrass, Large plant response rating (crabgrass, large; [6])
10: Plant response rating, Morningglory (morningglory; [1]) | Plant response rating, Morningglory (morningglory; [3]) | Plant response rating, Johnsongrass (johnsongrass; [4]) | Plant response rating, Waterhemp (waterhemp; [2])
30: Plant response rating, Wheat (wheat; [8]) | Blackgrass plant response rating (blackgrass; [6])
80: Plant response rating, Johnsongrass (johnsongrass; [7]) | Plant response rating, Waterhemp (waterhemp; [7]) | Plant response rating, Pigweed (pigweed; [7]) | Plant response rating, Wheat (wheat; [9]) | Plant response rating, Lambsquarters (lambsquarters; [7])
55: Plant response rating (scale of 0 to 100), Morningglory (morningglory; Preemergence, 250 g ai/ha) | Plant response rating, Pigweed (pigweed; [4]) | Pigweed plant response rating (pigweed; [5]) | Plant response rating, Lambsquarters (lambsquarters; [2])
35: Plant response rating, Morningglory (morningglory; [7]) | Plant response rating, Pigweed (pigweed; [2])
75: Pigweed plant response rating (pigweed; [6]) | Plant response rating, Crabgrass, Large (crabgrass, large; [4])
85: Plant response rating (scale of 0 to 100), Johnsongrass (johnsongrass; Preemergence, 250 g ai/ha) | Plant response rating, Galium (galium) | Plant response rating (scale of 0 to 100), Galium (galium) | Plant response rating (scale of 0 to 100), Lambsquarters (lambsquarters; Preemergence, 250 g ai/ha)
20: Plant response rating, Waterhemp (waterhemp; [3])
98: Plant response rating, Crabgrass, Large (crabgrass, large; [7]) | Plant response rating (scale of 0 to 100), Crabgrass, Large (crabgrass, large; Preemergence, 250 g ai/ha)
5: Plant response rating, Morningglory (morningglory; [2])
100: Blackgrass plant response rating (blackgrass; [5])

O=C1NCC(c2cccc(OC(F)F)c2)C1C(=O)Nc1ccc(F)c(F)c1F (stereo not drawn) [Compound 325]
0: Morningglory plant response rating (morningglory; [5]) | Plant response rating, Johnsongrass (johnsongrass; [1]) | Plant response rating, Johnsongrass (johnsongrass; [2]) | Plant response rating, Johnsongrass (johnsongrass; [3]) | Plant response rating, Johnsongrass (johnsongrass; [4]) | Plant response rating, Waterhemp (waterhemp; [1]) | Plant response rating, Waterhemp (waterhemp; [2]) | Plant response rating, Wheat (wheat (winter wheat); [1]) | Plant response rating, Wheat (wheat (winter wheat); [2]) | Plant response rating, Wheat (wheat (winter wheat); [3]) | Galium plant response rating (galium; [10]) | Plant response rating, Blackgrass (blackgrass; [1]) | Plant response rating, Blackgrass (blackgrass; [2]) | Plant response rating, Blackgrass (blackgrass; [3])
20: Johnsongrass plant response rating (johnsongrass; [5]) | Galium plant response rating (galium; [11]) | Plant response rating, Lambsquarters (lambsquarters; [1])
95: Crabgrass, Large plant response rating (crabgrass, large; [5]) | Crabgrass, Large plant response rating (crabgrass, large; [6]) | Plant response rating, Crabgrass, Large (crabgrass, large; [7])
70: Plant response rating, Blackgrass (blackgrass; [7]) | Plant response rating, Lambsquarters (lambsquarters; [3]) | Lambsquarters plant response rating (lambsquarters; [6])
45: Plant response rating, Lambsquarters (lambsquarters; [2]) | Lambsquarters plant response rating (lambsquarters; [5])
5: Plant response rating, Morningglory (morningglory; [1]) | Plant response rating, Morningglory (morningglory; [2]) | Plant response rating, Wheat (wheat (winter wheat); [4]) | Blackgrass plant response rating (blackgrass; [5])
75: Plant response rating, Johnsongrass (johnsongrass; [7]) | Plant response rating (scale of 0 to 100), Johnsongrass (johnsongrass; Preemergence, 250 g ai/ha) | Waterhemp plant response rating (waterhemp; [6]) | Plant response rating, Pigweed (pigweed; [7])
60: Plant response rating, Wheat (wheat; [8])
80: Plant response rating, Waterhemp (waterhemp; [7]) | Plant response rating, Wheat (wheat; [9]) | Plant response rating (scale of 0 to 100), Galium (galium) | Plant response rating, Lambsquarters (lambsquarters; [7]) | Plant response rating (scale of 0 to 100), Lambsquarters (lambsquarters; Preemergence, 250 g ai/ha)
40: Plant response rating (scale of 0 to 100), Morningglory (morningglory; Preemergence, 250 g ai/ha) | Plant response rating, Sedge, Umbrella (sedge, umbrella) | Plant response rating, Pigweed (pigweed; [1]) | Wheat plant response rating (wheat (winter wheat); [6])
50: Plant response rating, Morningglory (morningglory; [4]) | Plant response rating, Pigweed (pigweed; [3]) | Plant response rating, Galium (galium) | Blackgrass plant response rating (blackgrass; [6])
35: Plant response rating, Morningglory (morningglory; [3]) | Johnsongrass plant response rating (johnsongrass; [6]) | Plant response rating, Waterhemp (waterhemp; [4]) | Plant response rating, Blackgrass (blackgrass; [4])
85: Plant response rating (scale of 0 to 100), Blackgrass (blackgrass; Preemergence, 250 g ai/ha) | Plant response rating, Crabgrass, Large (crabgrass, large; [4])
25: Plant response rating, Waterhemp (waterhemp; [3])
100: Plant response rating (scale of 0 to 100), Crabgrass, Large (crabgrass, large; Preemergence, 250 g ai/ha)
30: Morningglory plant response rating (morningglory; [6]) | Plant response rating, Morningglory (morningglory; [7])
65: Plant response rating, Pigweed (pigweed; [4]) | Pigweed plant response rating (pigweed; [5]) | Pigweed plant response rating (pigweed; [6]) | Plant response rating, Wheat (wheat (winter wheat); [7]) | Plant response rating, Lambsquarters (lambsquarters; [4]) | Plant response rating, Crabgrass, Large (crabgrass, large; [2]) | Plant response rating, Crabgrass, Large (crabgrass, large; [3])
55: Plant response rating, Pigweed (pigweed; [2]) | Plant response rating, Crabgrass, Large (crabgrass, large; [1])
